From ChEMBL document CHEMBL1156513, “Pharmacologic inhibition of tpl2 blocks inflammatory responses in primary human monocytes, synoviocytes, and blood” (J Biol Chem, 2007)
The source made the active and inactive calls. The rule behind the calls is not given here.

Columns and labels:
[1] = biological target: Mitogen-activated protein kinase 14 (Homo sapiens, UniProt Q16539); experiment: Inhibition of human p38alpha by ELISA
Stromelysin-1 = Stromelysin-1 (Homo sapiens, UniProt P08254); experiment: Inhibition of IL-1-beta-stimulated MMP3 in human RA-FLS cells by immunoblot analysis; type: cell-based
Chain of Stromelysin-1 (P08254 whole entry): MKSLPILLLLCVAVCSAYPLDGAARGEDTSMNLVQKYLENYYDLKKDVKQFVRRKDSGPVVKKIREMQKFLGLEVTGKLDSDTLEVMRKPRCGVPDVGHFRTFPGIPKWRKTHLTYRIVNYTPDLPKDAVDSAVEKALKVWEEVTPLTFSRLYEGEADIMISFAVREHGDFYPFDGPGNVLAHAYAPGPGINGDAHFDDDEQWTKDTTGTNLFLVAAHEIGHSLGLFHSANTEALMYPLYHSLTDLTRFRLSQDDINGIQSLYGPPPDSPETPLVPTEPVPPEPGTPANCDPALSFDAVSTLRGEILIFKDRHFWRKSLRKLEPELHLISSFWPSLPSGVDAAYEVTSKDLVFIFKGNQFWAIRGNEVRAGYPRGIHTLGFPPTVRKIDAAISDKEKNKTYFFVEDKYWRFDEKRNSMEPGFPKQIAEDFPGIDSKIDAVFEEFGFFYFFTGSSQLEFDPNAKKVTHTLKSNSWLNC

Homo sapiens [2] = species: Homo sapiens; experiment: Inhibition of PMA-induced ERK phosphorylation in primary human monocytes by immunoblot analysis; type: cell-based
[3] = (§1) Inhibition of LPS-induced ERK phosphorylation in primary human monocytes by immunoblot analysis; type: cell-based
[4] = Inhibition of human JNK1alpha by scintiplate assay
HeLa [5] = experiment: Inhibition of TNF-alpha-induced IL8 production in human HeLa cells after 4 hrs; type: functional, cell-based
HEK293 [6] = experiment: Inhibition of IL-1-beta-induced NF-kappaB activation in HEK293 cells upto 10 uM by luciferase assay; type: cell-based; conditions: Homo sapiens
Homo sapiens [7] = species: Homo sapiens; experiment: Inhibition of PMA-induced MEK phosphorylation in primary human monocytes by immunoblot analysis; type: cell-based
[8] = (§2) Inhibition of LPS-induced MEK phosphorylation in primary human monocytes by immunoblot analysis; type: cell-based
[9] = biological target: T1, Inhibitor of nuclear factor kappa-B kinase subunit beta (Homo sapiens, UniProt O14920); experiment: Inhibition of human IKK-beta by ELISA
T1 sequence (O14920 whole entry): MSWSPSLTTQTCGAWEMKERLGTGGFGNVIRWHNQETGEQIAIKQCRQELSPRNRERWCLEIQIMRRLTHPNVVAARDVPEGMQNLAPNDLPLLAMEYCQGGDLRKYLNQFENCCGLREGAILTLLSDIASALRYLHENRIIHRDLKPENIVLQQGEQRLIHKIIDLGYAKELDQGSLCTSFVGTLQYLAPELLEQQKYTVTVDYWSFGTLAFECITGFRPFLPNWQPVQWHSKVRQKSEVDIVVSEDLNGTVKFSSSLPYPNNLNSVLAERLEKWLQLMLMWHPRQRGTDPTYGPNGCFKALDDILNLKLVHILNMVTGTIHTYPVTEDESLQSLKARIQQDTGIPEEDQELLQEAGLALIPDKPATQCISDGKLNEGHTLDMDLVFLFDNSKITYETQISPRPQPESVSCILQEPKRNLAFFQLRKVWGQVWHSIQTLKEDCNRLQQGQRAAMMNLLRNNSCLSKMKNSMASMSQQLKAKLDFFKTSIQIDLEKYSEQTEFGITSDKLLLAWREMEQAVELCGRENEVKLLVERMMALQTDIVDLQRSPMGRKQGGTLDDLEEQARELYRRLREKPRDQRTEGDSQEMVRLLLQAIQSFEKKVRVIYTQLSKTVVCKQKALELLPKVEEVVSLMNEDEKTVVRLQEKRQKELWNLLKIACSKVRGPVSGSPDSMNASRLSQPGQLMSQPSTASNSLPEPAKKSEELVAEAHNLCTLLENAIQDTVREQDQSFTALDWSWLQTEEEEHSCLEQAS

[10] = biological target: MAP kinase p38 (Homo sapiens) (UniProt O15264+Q15759+Q16539+P53778); experiment: Inhibition of LPS-induced p38 phosphorylation in primary human monocytes upto 5 uM by immunoblot analysis; type: cell-based
[11] = biological target: T2, NF-kappa-B inhibitor alpha (Homo sapiens) (UniProt P25963); experiment: Inhibition of LPS-induced IkappaBalpha phosphorylation in primary human monocytes upto 5 uM by immunoblot analysis; type: cell-based
T2 sequence (whole entry): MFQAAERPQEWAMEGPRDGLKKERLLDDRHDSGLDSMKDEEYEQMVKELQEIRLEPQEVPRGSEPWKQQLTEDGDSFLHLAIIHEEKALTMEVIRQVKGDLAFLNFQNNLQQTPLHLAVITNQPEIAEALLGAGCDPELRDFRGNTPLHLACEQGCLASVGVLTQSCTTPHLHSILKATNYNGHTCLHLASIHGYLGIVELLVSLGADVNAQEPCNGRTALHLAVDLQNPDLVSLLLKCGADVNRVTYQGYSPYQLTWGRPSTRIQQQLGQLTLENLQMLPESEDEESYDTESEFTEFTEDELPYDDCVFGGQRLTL

[12] = Inhibition of human PKA by scintiplate assay
HeLa [13] = experiment: Inhibition of human MEK phosphorylation in Tpl2 transfected HeLa cells; type: cell-based
Monocyte [14] = experiment: Inhibition of IL-1-beta-induced TNFalpha production in primary human monocytes; type: functional, cell-based
HeLa [15] = experiment: Inhibition of TNF-alpha-induced ERK phosphorylation in human HeLa cells by immunoblot analysis; type: functional, cell-based
Blood [16] = experiment: Inhibition of LPS-induced TNFalpha production in human blood; type: functional, tissue-based
Homo sapiens [17] = species: Homo sapiens; experiment: Inhibition of LPS-induced c-Jun phosphorylation in primary human monocytes upto 5 uM by immunoblot analysis; type: cell-based
Monocyte [18] = experiment: (§3) Inhibition of LPS-induced IL12p40 production in primary human monocytes; type: functional
HeLa [19] = experiment: Cytotoxicity against human HeLa cells; type: functional, cell-based
Homo sapiens [20] = species: Homo sapiens; experiment: Effect on ERK activation in LPS-induced tpl2-/- mouse peritoneal macrophages
Blood [21] = experiment: Inhibition of IL-1-beta-induced TNFalpha production in human blood; type: functional, tissue-based
[22] = biological target: Protein kinase C alpha type (Homo sapiens, UniProt P17252); experiment: Inhibition of human PKCalpha by scintiplate assay
HeLa [23] = experiment: Inhibition of IL8 production in human Tpl2 expressing HeLa cells after 17 hrs by ELISA; type: functional, cell-based
[24] = biological target: Mitogen-activated protein kinase kinase kinase 8 (Homo sapiens, UniProt P41279); experiment: Inhibition of human Tpl2 by ELISA
Chain of Mitogen-activated protein kinase kinase kinase 8 (P41279 whole entry): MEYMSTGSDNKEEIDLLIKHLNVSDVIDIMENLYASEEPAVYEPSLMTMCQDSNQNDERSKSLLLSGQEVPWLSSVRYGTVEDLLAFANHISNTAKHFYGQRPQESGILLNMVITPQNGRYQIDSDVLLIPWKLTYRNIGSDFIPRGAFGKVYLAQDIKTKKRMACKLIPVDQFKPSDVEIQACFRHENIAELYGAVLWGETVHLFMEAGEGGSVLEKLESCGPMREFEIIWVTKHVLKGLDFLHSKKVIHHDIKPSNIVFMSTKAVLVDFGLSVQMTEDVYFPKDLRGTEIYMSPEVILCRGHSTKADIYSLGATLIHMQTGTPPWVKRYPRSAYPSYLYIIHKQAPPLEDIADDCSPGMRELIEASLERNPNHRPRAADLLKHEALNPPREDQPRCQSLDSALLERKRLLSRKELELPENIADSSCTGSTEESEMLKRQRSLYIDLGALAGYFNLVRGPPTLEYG

[25] = Inhibition of IL-1-beta-stimulated PGE2 production in human RA-FLS cells by immunoblot analysis; type: functional, cell-based
Monocyte [26] = experiment: (§4) Inhibition of IL-1-beta-induced IL12p40 production in primary human monocytes at 5 uM; type: functional
[27] = biological target: Dual specificity mitogen-activated protein kinase kinase 1 (Oryctolagus cuniculus, UniProt P29678); experiment: Inhibition of rabbit MEK1 by ELISA
Chain of Dual specificity mitogen-activated protein kinase kinase 1 (P29678 whole entry): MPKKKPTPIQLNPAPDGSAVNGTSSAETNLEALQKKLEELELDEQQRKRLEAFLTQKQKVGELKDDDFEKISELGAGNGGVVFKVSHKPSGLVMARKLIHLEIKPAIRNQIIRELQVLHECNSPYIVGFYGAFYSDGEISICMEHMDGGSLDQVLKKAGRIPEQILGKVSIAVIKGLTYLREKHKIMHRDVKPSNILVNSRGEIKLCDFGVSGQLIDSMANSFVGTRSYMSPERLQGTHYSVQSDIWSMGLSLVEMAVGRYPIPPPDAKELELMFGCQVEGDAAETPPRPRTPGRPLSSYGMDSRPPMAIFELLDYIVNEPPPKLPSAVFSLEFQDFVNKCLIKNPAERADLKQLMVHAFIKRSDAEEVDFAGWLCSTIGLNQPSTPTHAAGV

[28] = biological target: T3, Dual specificity mitogen-activated protein kinase kinase 6 (Homo sapiens, UniProt P52564); experiment: Inhibition of human MKK6 by ELISA
T3 sequence (P52564 whole entry): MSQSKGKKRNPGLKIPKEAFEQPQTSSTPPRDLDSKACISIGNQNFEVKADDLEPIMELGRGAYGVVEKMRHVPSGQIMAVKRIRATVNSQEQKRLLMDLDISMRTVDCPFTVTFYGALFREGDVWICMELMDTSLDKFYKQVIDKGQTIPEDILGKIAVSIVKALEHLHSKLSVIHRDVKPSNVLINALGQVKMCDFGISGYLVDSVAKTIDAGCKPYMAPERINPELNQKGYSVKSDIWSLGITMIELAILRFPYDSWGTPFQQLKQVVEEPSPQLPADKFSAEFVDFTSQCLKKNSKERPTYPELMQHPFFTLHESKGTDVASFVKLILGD

[29] = Cytotoxicity against human RA-FLS cells at =< 10 uM; type: cell-based
[30] = Inhibition of IL-1-beta-induced ERK phosphorylation in primary human monocytes by immunoblot analysis; type: cell-based
RA-FLS [31] = experiment: Inhibition of IL-1-beta-stimulated PGE2 production in human RA-FLS cells after 4 hrs by ELISA; type: functional, cell-based
[32] = Inhibition of IL-1-beta-stimulated MMP1 in human RA-FLS cells by immunoblot analysis; type: functional, cell-based
[33] = Inhibition of human CaMK2 by ELISA
Monocyte [34] = experiment: Inhibition of LPS-induced TNFalpha production in primary human monocytes; type: functional, cell-based
[35] = Inhibition of human S6K by scintiplate assay
Monocyte [36] = experiment: as §3; type: functional, cell-based
[37] = Inhibition of TNF-alpha-stimulated PGE2 production in human RA-FLS cells by immunoblot analysis; type: functional, cell-based
[38] = biological target: T4, MAP kinase-activated protein kinase 2 (Homo sapiens, UniProt P49137); experiment: Inhibition of LPS-induced MK2 phosphorylation in primary human monocytes upto 5 uM by immunoblot analysis; type: cell-based
Target sequence in this assay (P49137 whole entry, looked up): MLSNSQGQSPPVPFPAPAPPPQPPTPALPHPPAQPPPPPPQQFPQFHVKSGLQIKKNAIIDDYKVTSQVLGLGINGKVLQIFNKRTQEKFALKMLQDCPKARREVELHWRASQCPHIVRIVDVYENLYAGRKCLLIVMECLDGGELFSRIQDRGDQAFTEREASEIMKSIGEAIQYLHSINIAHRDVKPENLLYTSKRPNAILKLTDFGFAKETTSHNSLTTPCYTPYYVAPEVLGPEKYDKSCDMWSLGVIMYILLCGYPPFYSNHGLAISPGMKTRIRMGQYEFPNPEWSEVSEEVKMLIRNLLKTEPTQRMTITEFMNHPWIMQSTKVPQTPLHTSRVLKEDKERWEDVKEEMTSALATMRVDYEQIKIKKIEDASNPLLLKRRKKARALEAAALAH

[39] = Cytotoxicity against primary human monocytes at 5 uM; type: cell-based; conditions: monocyte
[40] = Inhibition of IL-1-beta-induced MEK phosphorylation in primary human monocytes by immunoblot analysis; type: cell-based
[41] = Inhibition of IL-1-beta-stimulated IL6 production in human RA-FLS cells by immunoblot analysis; type: functional, cell-based
HEK293 [42] = experiment: Inhibition of TNF-induced NF-kappaB activation in HEK293 cells upto 10 uM by luciferase assay; type: cell-based; conditions: Homo sapiens
HeLa [43] = experiment: Inhibition of human ERK phosphorylation in Tpl2 transfected HeLa cells; type: cell-based
[44] = biological target: T4, MAP kinase-activated protein kinase 2; experiment: Inhibition of human MK2 by scintiplate assay
Target sequence in this assay (P49137 whole entry): as the sequence (P49137 whole entry, looked up) above

[45] = biological target: RAF proto-oncogene serine/threonine-protein kinase (Homo sapiens, UniProt P04049); experiment: Inhibition of human Raf1
Chain of RAF proto-oncogene serine/threonine-protein kinase (P04049 whole entry): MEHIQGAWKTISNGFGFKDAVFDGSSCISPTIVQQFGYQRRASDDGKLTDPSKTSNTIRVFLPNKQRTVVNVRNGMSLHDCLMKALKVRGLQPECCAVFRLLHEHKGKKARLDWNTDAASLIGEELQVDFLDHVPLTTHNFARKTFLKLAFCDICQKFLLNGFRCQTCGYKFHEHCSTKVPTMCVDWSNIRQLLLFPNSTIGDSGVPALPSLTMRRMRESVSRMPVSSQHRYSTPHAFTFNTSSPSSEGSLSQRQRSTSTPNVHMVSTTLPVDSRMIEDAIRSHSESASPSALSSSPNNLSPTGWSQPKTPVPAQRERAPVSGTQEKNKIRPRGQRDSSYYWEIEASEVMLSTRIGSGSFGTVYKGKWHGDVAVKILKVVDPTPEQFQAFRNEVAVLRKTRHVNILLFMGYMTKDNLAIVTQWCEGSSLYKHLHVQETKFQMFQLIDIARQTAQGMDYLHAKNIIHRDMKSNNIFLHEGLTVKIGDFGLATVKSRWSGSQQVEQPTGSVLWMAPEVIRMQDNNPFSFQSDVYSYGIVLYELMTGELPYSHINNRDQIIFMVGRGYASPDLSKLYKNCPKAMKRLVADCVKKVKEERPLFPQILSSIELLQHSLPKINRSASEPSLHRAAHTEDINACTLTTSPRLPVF

[46] = Inhibition of IL-1-beta-stimulated ERK phosphorylation in shuman RA-FLS cells by immunoblot analysis; type: cell-based; conditions: Homo sapiens
[47] = Inhibition of IL-1-beta-stimulated IL8 production in human RA-FLS cells by immunoblot analysis; type: functional, cell-based
RA-FLS [48] = experiment: Inhibition of IL-1-beta-stimulated COX2 expression in human RA-FLS cells after 4 hrs by immunoblot analysis; type: functional, cell-based
[49] = biological target: Proto-oncogene tyrosine-protein kinase Src (Homo sapiens, UniProt P12931); experiment: Inhibition of human Src by ELISA
Chain of Proto-oncogene tyrosine-protein kinase Src (P12931 2-536 limits assumed): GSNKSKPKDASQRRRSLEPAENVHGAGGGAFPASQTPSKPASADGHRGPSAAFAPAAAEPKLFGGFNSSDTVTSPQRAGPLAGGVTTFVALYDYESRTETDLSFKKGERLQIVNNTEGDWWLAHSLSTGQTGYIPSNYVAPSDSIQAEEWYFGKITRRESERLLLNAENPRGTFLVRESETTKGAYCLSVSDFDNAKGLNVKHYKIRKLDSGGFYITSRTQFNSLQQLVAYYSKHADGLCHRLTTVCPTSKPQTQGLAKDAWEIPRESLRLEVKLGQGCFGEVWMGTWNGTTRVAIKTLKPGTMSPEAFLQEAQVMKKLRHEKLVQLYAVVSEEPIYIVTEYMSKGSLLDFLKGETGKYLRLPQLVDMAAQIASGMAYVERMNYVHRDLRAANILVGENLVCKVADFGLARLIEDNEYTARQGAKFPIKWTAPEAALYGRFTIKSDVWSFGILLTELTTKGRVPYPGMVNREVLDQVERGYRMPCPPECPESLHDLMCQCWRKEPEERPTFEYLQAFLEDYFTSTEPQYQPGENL

Monocyte [50] = experiment: as §4; type: functional, cell-based
Mus musculus = species: Mus musculus; experiment: Effect on IL-1-beta-induced ERK phosphorylation in 129S5 mouse thioglycollate elicited peritoneal macrophages
Homo sapiens [51] = species: Homo sapiens; experiment: as §1; type: cell-based
Homo sapiens [52] = species: Homo sapiens; experiment: as §2; type: cell-based

Chain of Mitogen-activated protein kinase 14 (Q16539 whole entry): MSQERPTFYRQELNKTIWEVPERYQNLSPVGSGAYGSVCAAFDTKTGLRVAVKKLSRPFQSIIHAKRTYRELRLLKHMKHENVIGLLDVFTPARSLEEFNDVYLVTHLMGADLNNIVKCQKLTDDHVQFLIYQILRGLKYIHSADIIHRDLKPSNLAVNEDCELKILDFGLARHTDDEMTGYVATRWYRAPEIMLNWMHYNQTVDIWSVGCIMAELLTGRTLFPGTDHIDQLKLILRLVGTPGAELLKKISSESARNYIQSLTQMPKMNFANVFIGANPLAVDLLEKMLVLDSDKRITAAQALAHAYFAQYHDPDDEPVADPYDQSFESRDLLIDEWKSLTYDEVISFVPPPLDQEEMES

N#Cc1cnc2c(Cl)cc(NCc3cnc[nH]3)cc2c1Nc1ccc(F)c(Cl)c1
IC50 [1]: > 100 µM
IC50 (Stromelysin-1): 2300 nM
Activity (Homo sapiens [2]): inactive
IC50 [3]: 100 nM
IC50 [4]: 65 µM
IC50 (HeLa [5]): 200 nM
Activity (HEK293 [6]): inactive
Activity (Homo sapiens [7]): inactive
IC50 [8]: 500 nM
IC50 [9]: 73 µM
Activity [10]: inactive
Activity [11]: inactive
IC50 [12]: > 100 µM
Activity (HeLa [13]): Active
IC50 (Monocyte [14]): 700 nM
IC50 (HeLa [15]): 2500 nM
IC50 (Blood [16]): 5.4 µM
Activity (Homo sapiens [17]): inactive
inhibition (INH) (Monocyte [18]): 39%
Activity (HeLa [19]): inactive
Activity (Homo sapiens [20]): inactive
IC50 (Blood [21]): 7.2 µM
IC50 [22]: > 100 µM
IC50 (HeLa [23]): 1000 nM
IC50 [24]: 12 nM
IC50 [25]: 400 nM
inhibition at 5 µM (Monocyte [26]): 30%
IC50 [27]: > 40 µM
IC50 [28]: > 100 µM
Activity [29]: Non-toxic
IC50 [30]: 300 nM
Activity (RA-FLS [31]): Active
IC50 [32]: 4 µM
IC50 [33]: 23 µM
IC50 (Monocyte [34]): 600 nM
IC50 [35]: > 100 µM
IC50 (Monocyte [36]): > 5 µM
IC50 [37]: 700 nM
Activity [38]: inactive
Activity [39]: Non-toxic
IC50 [40]: 500 nM
IC50 [41]: 6.9 µM
Activity (HEK293 [42]): inactive
Activity (HeLa [43]): Active
IC50 [44]: 48 µM
IC50 [45]: > 100 µM
IC50 [46]: 300 nM
IC50 [47]: 7.9 µM
Activity (RA-FLS [48]): Active
IC50 [49]: > 100 µM
IC50 (Monocyte [50]): > 5 µM
Activity (Mus musculus): Dose-dependent effect

C[C@H](Nc1cc2c(Nc3ccc(F)c(Cl)c3)c(C#N)cnc2cn1)c1ccccc1
Activity (Homo sapiens [51]): inactive
Activity (Homo sapiens [52]): inactive

C[C@@H](Nc1cc2c(Nc3ccc(F)c(Cl)c3)c(C#N)cnc2cn1)c1ccccc1
IC50 [3]: ≤ 1000 nM
IC50 [8]: ≤ 1000 nM
IC50 [24]: 16 nM
